Laboratory results as given in BindingDB's records for PubMed 35239336 (Pharmaron Beijing Co., Ltd., 2022).

Test: Inhibition of MK-499 binding to hERG
Work on O=C(Nc1ccc(F)cc1)C1(c2ccc(-c3cnc(C(F)(F)F)cc3CO)cc2)CC(F)(F)C1 yielded an IC50 of 6.1 µM. Cc1cc(C2CC2)ncc1-c1ccc(C2(C(=O)Nc3ccc(F)cc3)COC2)cc1 showed an IC50 of 15.9 µM. With CC(C)(O)c1cc(C(F)(F)F)ncc1-c1ccc(C2(C(=O)Nc3ccc(F)cc3)COC2)cc1 the IC50 was 21.3 µM. Molecule Cc1cc(C(F)(F)F)ncc1-c1ccc(C2(C(=O)Nc3ccc(F)cc3)COC2)cc1 has an IC50 of 2.23 µM. O=C(Nc1ccc(F)cc1)C1(c2ccc(-c3ccc(C4CC4)nc3)cc2)COC1 showed an IC50 of 13.5 µM.
